Source: patent US20120165319A1, “INHIBITORS OF INTERLEUKIN-1 BETA CONVERTING ENZYME” (VERTEX PHARMACEUTICALS INCORPORATED, priority 1995, published 2012)
pIC50: −log10 of the molar value. Like-named read-outs stand apart in the source and are kept apart here.

What was measured:
[1] = system: IL-1β, human peripheral blood mononuclear cells (PBMC); assay: PBMC cell assay: IL-1β assay with human PBMC or enriched adherent mononuclear cells, LPS-stimulated; assay type: cell-based
Method in brief: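 Mature IL-1β is measured by ELISA in supernatants after 16–18 hr at 37 °C, 5% CO2, with LPS (5 ng/ml final) and test compound (0.1% DMSO final). Cells are human PBMC (6×10^6 cells/ml) or plate-adherent mononuclear cells (2.5−3.0×10^5 per well), and the 5–6 compound concentrations span the ICE Ki.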

IL-1β, human whole blood = assay: Whole blood assay for IL-1β production; assay type: cell-based
Method in brief: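 IL-1β was quantified by ELISA in plasma diluted 1:200. The plasma came from EDTA-anticoagulated human whole blood incubated at 30 °C for 16-18 h with LPS (final 5.0 ng/ml) plus a saline serial dilution of compound. Controls were no-LPS, no-inhibitor and highest-vehicle.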

[2] = Table 18, read-out: Whole human blood IC5O
[3] = Homo sapiens, PBMC, * = values obtained upon reassay
[4] = Homo sapiens, * = values obtained upon reassay, read-out: Whole human blood IC50
[5] = Homo sapiens, Table 17, read-out: Whole human blood IC50

`CS(=O)(=O)N[C@H]1CCC(=O)N2CCC[C@@H](C(=O)N[C@@H](CC(=O)O)C(=O)COC(=O)c3sccc3Cl)N2C1=O` [505 e, [3S(1S,9S)]5-(3-Chlorothien-2-oyloxy)-3-(6,10-dioxo-9-methanesulphonylamino-1,2,3,4,7,8,9,10-octahydro-6H-pyridazino[1,2-a][1,2]diazepine-1-carboxamido)-4-oxopentanoic acid] was tested, and the pIC50 ([1]; Table 18) was 5.05 and the pIC50 (IL-1β, human whole blood; [2]) was 6.00.

`O=C[C@H](CC(=O)O)NC(=O)[C@@H]1CCCN2C(=O)CC[C@H](NC(=O)c3ccc(Cl)cc3)C(=O)N12` [Compound 416] gave a pIC50 [1, 3] of 5.92 and a pIC50 (IL-1β, human whole blood; [4]) of 5.47.

For `CC(=O)N[C@H]1CCC(=O)N2CCC[C@@H](C(=O)N[C@@H](CC(=O)O)C(=O)COC(=O)c3c(Cl)cccc3Cl)N2C1=O` [Compound 217c, [3S(1S,9S)]3-(9-Acetylamino-6,10-dioxo-1,2,3,4,7,8,9,10-octahydro-6H-pyridazino-[1,2-a][1,2]diazepine-1-carboxamido)-5-(2,6-dichlorobenzoyloxy)-4-oxopentanoic acid], the pIC50 [1, 3] was 5.77 and the pIC50 (IL-1β, human whole blood; [4]) was 5.15.

In the case of `O=C(O)C[C@H](NC(=O)[C@@H]1CCCN2C(=O)CC[C@H](NC(=O)c3ccccc3)C(=O)N12)C(=O)COC(=O)c1c(Cl)cccc1Cl` [Compound 217e, [3S(1S,9S)]3-(9-Benzoylamino-6,10-dioxo-1,2,3,4,7,8,9,10-octahydro-6H-pyridazino[1,2-a][1,2]-diazepine-1-carboxamido)-5-(2,6-dichlorobenzoyloxy)-4-oxopentanoic acid], the pIC50 [1, 3] was 6.76 and the pIC50 (IL-1β, human whole blood; [4]) was 5.70.

Molecule `O=C[C@H](CC(=O)O)NC(=O)[C@@H]1CCCN2C(=O)CC[C@H](NC(=O)c3ccccc3)C(=O)N12` [Compound 214e, [3S(1S,9S)]3-(9-Benzoylamino-6,10-dioxo-1,2,3,4,7,8,9,10-octahydro-6H-pyridazino[1,2-a][1,2]-diazepine-1-carboxamido)-4-oxobutanoic acid] has a pIC50 [1, 3] of 5.80 and a pIC50 (IL-1β, human whole blood; [4]) of 5.89.

Molecule `CS(=O)(=O)N[C@H]1CCC(=O)N2CCC[C@@H](C(=O)N[C@@H](CC(=O)O)C(=O)COC(=O)c3cccc4ccccc34)N2C1=O` [Compound 286, [3S(1S,9S)]3-(6,10-Dioxo-9-methanesulphonylamino-1,2,3,4,7,8,9,10-octahydro-6H-pyridazino[1,2-a][1,2]diazepine-1-carboxamido)-5-(1-naphthoyloxy)-4-oxopentanoic acid] has a pIC50 ([1]; Table 18) of 6.52 and a pIC50 (IL-1β, human whole blood; [2]) of 5.80.

`O=C[C@H](CC(=O)O)NC(=O)[C@@H]1CCCN2CCC[C@H](NC(=O)c3ccccc3)C(=O)N12` [Compound 246] was tested, and the pIC50 [1, 3] was 6.02 and the pIC50 (IL-1β, human whole blood; [4]) was 5.00.

In the case of `CC(=O)Nc1ccc(C(=O)NN2CCC(=O)N3CCC[C@@H](C(=O)N[C@H](C=O)CC(=O)O)N3C2=O)cc1` [Compound 1018, [3S(4S)]3-{7-[(4-Acetamido)benzamido]-6,10-Dioxo-1,2,3,4,7,8,9,10-octahydro-6H-pyridazino[1,2-a][1,2,4]-triazepine-4-carboxamido}-4-oxobutanoic acid], the pIC50 ([1]; Homo sapiens, PBMC, Table 17) was 5.40 and the pIC50 (IL-1β, human whole blood; [5]) was 5.26.

`O=C1C[C@H](NC(=O)[C@@H]2CCCN3C(=O)CC[C@H](NC(=O)c4cccc5ccccc45)C(=O)N23)C(OCc2ccccc2)O1` (stereo partly drawn) [Compound 213v, [1S,9S(2RS,3S)]N-(2-Benzyloxy-5-oxotetrahydrofuran-3-yl)-6,10-dioxo-9-(naphth-1-oylamino)-1,2,3,4,7,8,9,10-octahydro-6H-pyridazino[1,2-a][1,2]diazepine-1-carboxamide] was tested, and the pIC50 ([1]; Homo sapiens, PBMC, Table 17) was 5.96 and the pIC50 (IL-1β, human whole blood; [5]) was 5.96.

Molecule `O=C[C@H](CC(=O)O)NC(=O)CN1C(=O)[C@@H](NC(=O)c2nccc3ccccc23)CN(C(=O)CO)c2ccccc21` [Compound 696, (3S)-3-[(3S)-2-Oxo-3-(isoquinolin-1-oyl)amino-5-hydroxyacetyl-2,3,4,5-tetrahydro-1H-1,5-benzodiazepine-1-acetylamino]-4-oxo-butyric acid] has a pIC50 ([1]; Homo sapiens, PBMC, Table 17) of 5.70 and a pIC50 (IL-1β, human whole blood; [5]) of 5.54.

In the case of `CC(=O)N1C[C@H](NC(=O)c2cc(Cl)c(O)c(Cl)c2)C(=O)N(CC(=O)N[C@H](C=O)CC(=O)O)c2ccccc21` [Compound 656, (3S)-3-[(3S)-2-Oxo-3-(3,5-dichloro, 4-hydroxybenzoyl)amino-5-acetyl-2,3,4,5-tetrahydro-1H-1,5-benzodiazepine-1-acetylamino-]4-oxo-butyric acid], the pIC50 ([1]; Homo sapiens, PBMC, Table 17) was 5.68 and the pIC50 (IL-1β, human whole blood; [5]) was 5.80.

Molecule `CC(C)(C)OC(=O)C[C@@H](C=O)NC(=O)[C@@H]1CCCN2C(=O)CC[C@H](NC(=O)c3ccccc3)C(=O)N12` [Compound 302, [3S(1S,9S)3-(9-Benzoylamino-6,10-dioxo-1,2,3,4,7,8,9,10-octahydro-6H-pyriazino-[1,2-a][1,2]diazapine-1-carboxamido)-amino]-4-oxobutanoic acid tert-butyl ester] has a pIC50 [1, 3] of under 4.70 and a pIC50 (IL-1β, human whole blood; [4]) of under 4.70.

With `CC(=O)Nc1ccc(C(=O)N[C@H]2CCC(=O)N3CCC[C@@H](C(=O)N[C@H](C=O)CC(=O)O)N3C2=O)cc1Cl` [Compound 214l, [3S(1S,9S)]3-(9-(3-Chloro-4-acetamidobenzoyl)amino-6,10-dioxo-1,2,3,4,7,8,9,10-octahydro-6H-pyridazino[1,2-a][1,2]diazepine-1-carboxamido)-4-oxobutanoic acid] the pIC50 ([1]; Homo sapiens, PBMC, Table 17) was 5.72 and the pIC50 (IL-1β, human whole blood; [5]) was 5.96.

`O=C(O)C[C@H](NC(=O)[C@@H]1CCCN2C(=O)CC[C@H](NC(=O)CCc3ccccc3)C(=O)N12)C(=O)COC(=O)c1c(Cl)cccc1Cl` [Compound 136] was tested, and the pIC50 [1, 3] was 6.06 and the pIC50 (IL-1β, human whole blood; [4]) was 5.55.

`COc1c(Cl)cc(C(=O)N[C@H]2CCC(=O)N3CCC[C@@H](C(=O)N[C@H](C=O)CC(=O)O)N3C2=O)cc1Cl` [Compound 214m] showed a pIC50 ([1]; Homo sapiens, PBMC, Table 17) of 6.28 and a pIC50 (IL-1β, human whole blood; [5]) of 5.66.

`O=C1C[C@H](NC(=O)[C@@H]2CCCN3C(=O)CC[C@H](NC(=O)c4ccccc4)C(=O)N23)C(OCc2ccccc2)O1` (single isomer, unassigned) [Compound 2100n] gave a pIC50 ([1]; Homo sapiens, PBMC, Table 17) of 6.11 and a pIC50 (IL-1β, human whole blood; [5]) of 5.40.

For `CC(C)OC1OC(=O)C[C@@H]1NC(=O)[C@@H]1CCCN2C(=O)CC[C@H](NC(=O)c3ccccc3)C(=O)N12` (stereo partly drawn) [Compound 2100a, [1S,9S(2RS,3S)]9-Benzoylamino-6,10-dioxo-1,2,3,4,7,8,9,10-octahydro-N-(2-isopropoxy-5-oxo-tetrahydro-furan-3-yl)-6H-pyridazino-[1,2-a][1,2]diazepine-1-carboxamide], the pIC50 [1, 3] was 5.96 and the pIC50 (IL-1β, human whole blood; [4]) was 6.07.

Work on `CC(C)CC(=O)Nc1ccc(C(=O)N[C@H]2CCC(=O)N3CCC[C@@H](C(=O)N[C@H](C=O)CC(=O)O)N3C2=O)cc1` [Compound 487, [3S(1S,9S)]3-{6,10-Dioxo-9-[4-(3-methylbutan-1-oylamino)benzamido]-1,2,3,4,7,8,9,10-octahydro-6H-pyridazino[1,2-a][1,2]diazepine-1-carboxamido}-4-oxobutanoic acid] yielded a pIC50 ([1]; * = values obtained upon reassay) of 6.02, a pIC50 [1, 3] of 6.19 and a pIC50 (IL-1β, human whole blood; * = values obtained upon reassay, read-out: Whole human blood IC50) of 6.40. For the same molecule, the pIC50 (IL-1β, human whole blood; [4]) was 6.30.

`CCOC(=O)C[C@H](NC(=O)[C@@H]1CCCN2C(=O)CC[C@H](NC(=O)c3ccccc3)C(=O)N12)C(OCC)OCC` [Compound 2100b] was tested, and the pIC50 [1, 3] was under 4.70 and the pIC50 (IL-1β, human whole blood; [4]) was under 4.70.

For `COC(=O)N[C@H]1CCC(=O)N2CCC[C@@H](C(=O)N[C@@H](CC(=O)O)C(=O)COC(=O)c3c(C)cccc3C)N2C1=O` [Compound 285, [3S(1S,9S)]5-(2,6-Dimethylbenzoyloxy)-3-[6,10-dioxo-9-(methoxycarbonyl)amino-1,2,3,4,7,8,9,10-octahydro-6H-pyridazino[1,2-a][1,2]diazepine-1-carboxamido]-4-oxopentanoic acid], the pIC50 [1, 3] was 6.09 and the pIC50 (IL-1β, human whole blood; [4]) was 6.00.

Work on `CS(=O)(=O)N[C@H]1CCC(=O)N2CCC[C@@H](C(=O)N[C@@H](CC(=O)O)C(=O)COC(=O)c3c(Cl)cccc3Cl)N2C1=O` [Compound 138] yielded a pIC50 [1, 3] of 6.05 and a pIC50 (IL-1β, human whole blood; [4]) of 5.54.
